The text below walks through data of article PMC10305287, “Design, Synthesis, and Evaluation of the COX-2 Inhibitory Activities of New 1,3-Dihydro-2H-indolin-2-one Derivatives” (Molecules, 2023).

The subject of one series is RAW 264.7 cells. Nature of the series: Cytotoxicity assay (CCK-8) on RAW 264.7 cells. In kind it is cell-based, mouse. On the procedure:
The RAW 264.7 murine macrophage cells were obtained from the Cell Bank of the Chinese Academy of Sciences (Shanghai, China). RAW 264.7 cells were cultured in DMEM (Dulbecco’s Modified Eagle Medium) medium supplemented with 10% fetal bovine serum and 1% penicillin/streptomycin at 37 °C and 5% CO2 in a saturated humidified incubator. The Cell Counting Kit-8 (CCK-8) method was used to evaluate the cytotoxicity of all the compounds on RAW 264.7 cells in vitro. […] After 24 h of cultivation, the cells were incubated with a CCK-8 solution (10 µL). After incubation at 37 °C and 5% CO2 for 2–4 h, the optical density (OD) was recorded at 450 nm by a microplate reader. The half-maximal inhibitory concentration (IC50) was calculated by SPSS 22.0 software. PDTC was used as a positive control.

For series [1], the system named is NO production in LPS-stimulated RAW 264.7 cells. Nature of the series: Inhibition of NO production in LPS-stimulated RAW 264.7 cells. Type of series: cell-based, murine. As to conditions: for Anti-inflammatory activity, NO production (in words): LPS-stimulated RAW 264.7 cells; for IC50: LPS-activated RAW 264.7 cells, mean ± SD, n = 3. As to the method: RAW 264.7 cells were cultured in DMEM medium supplemented with 10% fetal bovine serum and 1% penicillin/streptomycin at 37 °C and 5% CO2 in a saturated humidified incubator. Then cells were seeded in 24-well plates (4 × 10^5 cells/well) after 24 h of incubation and treated with different concentrations of compounds (80, 40, 20, and 5 μM) for 2 h. The cells were stimulated with LPS (5 μg/mL) for 24 h, the supernatant was transferred to a new 24-well microtiter plate, and the NO concentration in the cell supernatant was calculated using an NO detection kit (Beyotime Company, Shanghai, China).

In series [2] the target is T1, human recombinant COX-2 enzyme (Homo sapiens, UniProt P35354).
T1 construct: purchased Beyotime Company, Shanghai, China
T1 sequence (P35354 18-604): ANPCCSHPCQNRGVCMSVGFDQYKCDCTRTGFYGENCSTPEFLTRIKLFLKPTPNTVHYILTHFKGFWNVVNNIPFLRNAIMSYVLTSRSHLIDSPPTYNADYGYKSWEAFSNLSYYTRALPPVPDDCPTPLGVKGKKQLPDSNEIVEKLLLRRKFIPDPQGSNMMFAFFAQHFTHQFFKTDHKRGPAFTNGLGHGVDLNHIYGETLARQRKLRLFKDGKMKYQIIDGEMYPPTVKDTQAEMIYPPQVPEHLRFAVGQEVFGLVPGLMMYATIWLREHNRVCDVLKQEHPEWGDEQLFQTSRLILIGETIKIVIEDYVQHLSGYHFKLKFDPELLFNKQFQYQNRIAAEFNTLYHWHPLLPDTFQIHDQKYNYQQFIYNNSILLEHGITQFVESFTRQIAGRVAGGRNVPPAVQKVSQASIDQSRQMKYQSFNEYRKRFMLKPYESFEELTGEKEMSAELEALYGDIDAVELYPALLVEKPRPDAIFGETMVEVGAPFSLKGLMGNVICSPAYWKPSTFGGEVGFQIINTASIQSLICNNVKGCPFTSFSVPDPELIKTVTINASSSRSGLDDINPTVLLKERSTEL
Nature of the series: In vitro COX-2 inhibitory assay (Cyclooxygenase-2 Inhibitor Screening Kit). Particulars: for IC50: human recombinant COX-2, fluorescence kit, mean ± SD, n = 3; for COX-2 inhibitory activity (in words): human recombinant COX-2, screening kit. In kind it is biochemical. On the procedure: The reaction was started by the addition of COX-2 substrate and allowed to proceed for 5 min. The intensity of fluorescence at an emission wavelength of 590 nm upon 560 nm excitation was measured using a microplate reader (Thermo Varioskan LUX, Waltham, MA, USA). All tests were repeated three times independently.

The test system of a further series is COX-2. As to conditions: read-out: IC50 (COX-2); cited from earlier work.
The mark [3] stands for this setting: CCK-8, concentration not stated.

“Also recorded” adds a separate entry of the source.

`Cc1ccc(S(=O)(=O)Nc2ccc3c(c2)C(=Cc2cccc(C(F)(F)F)c2)C(=O)N3)cc1` [Compound 9f] registered a melting point of 191.1 to 191.5 °C.
`CC(=O)N1C(=O)/C(=C/c2cccc(C(F)(F)F)c2)c2ccc(C(F)(F)F)cc21` [Compound 4b] came in with a melting point of 91.3 to 92.8 °C.
Compound `COc1cccc(C=C2C(=O)N(C(C)=O)c3cc(Cl)ccc32)c1` [Compound 4s] had a melting point of 141.3 to 143.2 °C. For the same compound, the “Cytotoxicity (in words)” value in the series with RAW 264.7 cells (CCK-8, at 100 μM) is “almost no cytotoxicity”.
For `CC(=O)N1C(=O)C(=Cc2cccc(C(F)(F)F)c2)c2cc(N)ccc21` [Compound 4e], the melting point is 165.9 to 166.2 °C. Moreover, the “Cytotoxicity (in words)” value in the series on RAW 264.7 cells (CCK-8, at 100 μM) was “almost no cytotoxicity; also recorded: no significant cytotoxicity”. In addition, in the series with RAW 264.7 cells (setting [3]), the “Cytotoxicity (in words)” value is “weak cytotoxicity”. The “Anti-inflammatory activity, NO production (in words)” value in series [1] was “obvious anti-inflammatory activity”. This compound registered an IC50 in series [1] (Mus musculus, RAW264.7) of 13.5 ± 0.48 µM. Also, in series [2], the IC50 was found to be 3.34 ± 0.05 µM.
Turning to `S=C(S)N1CCCC1` [PDTC, Ammonium pyrrolidinedithiocarbamate, reference compound], the IC50 in series [1] amounted to 13.7 ± 0.88 µM.
Compound `O=C1Cc2cc(/N=C/c3cccc(C(F)(F)F)c3)ccc2N1` [Compound 9h] returned a melting point of 166.3 to 166.8 °C. Moreover, the “Cytotoxicity (in words)” value in the series on RAW 264.7 cells (CCK-8, at 100 μM) is recorded as “almost no cytotoxicity”. Besides, the “Cytotoxicity (in words)” value with RAW 264.7 cells (setting [3]) is listed as “no cytotoxicity”. Moreover, in series [1], the “Anti-inflammatory activity, NO production (in words)” value was “no anti-inflammatory activity”. In series [2], the IC50 worked out at 2.35 ± 0.04 µM and the “COX-2 inhibitory activity (in words)” value is “good inhibitory activity”.
Compound `O=C1Cc2cc(N=Cc3cc(C(F)(F)F)cc(C(F)(F)F)c3)ccc2N1` [Compound 9i, 5-((3,5-bis(trifluoromethyl)benzylidene)amino)indolin-2-one] yielded a melting point of 191.1 to 191.5 °C. Further, the “Cytotoxicity (in words)” value in the series on RAW 264.7 cells (CCK-8, at 100 μM) is recorded as “almost no cytotoxicity”. For the same compound, in the series with RAW 264.7 cells (setting [3]), the “Cytotoxicity (in words)” value is on record as “no cytotoxicity”. In addition, the “Anti-inflammatory activity, NO production (in words)” value in series [1] is “no anti-inflammatory activity”. In series [2], the IC50 was determined as 2.42 ± 0.1 µM and the “COX-2 inhibitory activity (in words)” value is “good inhibitory activity”.
`COc1ccc2c(c1)c(CC(=O)O)c(C)n2C(=O)c1ccc(Cl)cc1` [indomethacin]: in the series on COX-2, the IC50 is […].
`O=C1Nc2ccc(NS(=O)(=O)c3ccc([N+](=O)[O-])cc3)cc2C1=Cc1cccc(C(F)(F)F)c1` [Compound 9d]: the melting point is 226.5 to 226.9 °C. The “Cytotoxicity (in words)” value in the series with RAW 264.7 cells (setting [3]) was “weak cytotoxicity”. In addition, the “Anti-inflammatory activity, NO production (in words)” value in series [1] is listed as “obvious anti-inflammatory activity”. For the same compound, in series [1] (Mus musculus, RAW264.7), the IC50 came out at 10 ± 0.27 µM.
As to `CC(=O)N1C(=O)C(=Cc2cccc(C(F)(F)F)c2)c2ccccc21` [Compound 4j], the melting point fell in the range of 121.5 to 123.3 °C. Also, in the series on RAW 264.7 cells (setting [3]), the “Cytotoxicity (in words)” value is listed as “weak cytotoxicity”. Also, the “Anti-inflammatory activity, NO production (in words)” value in series [1] is “obvious anti-inflammatory activity”. For the same compound, the IC50 in series [1] (Mus musculus, RAW264.7) worked out at 16.3 ± 0.35 µM.
The like results for `CC(=O)N1C(=O)C(=Cc2ccc(C(F)(F)F)cc2)c2ccc(Cl)cc21` [Compound 4i] were, in that order, 142.9 to 144.1 °C, “weak cytotoxicity”, “obvious anti-inflammatory activity” and 20.4 ± 1.61 µM.
Compound `CC(=O)N1C(=O)/C(=C\c2cccc(C(F)(F)F)c2)c2ccc(C(F)(F)F)cc21` [Compound 4a] displayed a melting point of 131.2 to 132.1 °C. Moreover, in the series with RAW 264.7 cells (setting [3]), the “Cytotoxicity (in words)” value was “weak cytotoxicity”. The “Anti-inflammatory activity, NO production (in words)” value in series [1] was “obvious anti-inflammatory activity”. Besides, in series [1] (Mus musculus, RAW264.7), the midpoint of inhibition, the IC50, lay at 17.8 ± 1.86 µM. Besides, in series [2], the IC50 came out at 19.9 ± 4.76 µM.
`CC(=O)N1C(=O)C(=Cc2ccccc2C(F)(F)F)c2ccc(Cl)cc21` [Compound 4k] displayed a melting point of 131 to 133.6 °C. Besides, the IC50 in series [2] was above 20 µM.

Broadly, the melting point is the temperature, or range, at which the solid turns liquid. Usually IC50 stands for the concentration needed to halve the response being measured.
